From PubChem BioAssay AID1963839 (Molecular Pharmacology Branch, DTP, NCI, 2024)

Test system: 817829-284-R-J1-PDC complex spheroid viability
Experiment: Anticancer human tumor 817829-284-R-J1-PDC patient-derived colon adenocarcinoma cell line growth inhibition [POLQ]
Conditions: for IC50: curve of first compound; for viability, T/C: stronger effect = lower value
Procedure, shortened: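 PDC + HUVEC + MSC complex spheroids; POLQ inhibitors ± partner drugs; top conc. at/near clinical Cmax, else 10 microM (SN-38 1 microM), half-log dilutions; 37 degrees C, 5% CO2.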

[1] = second compound 0.0316 µM, first compound 0.0316 µM
[2] = second compound 0.0316 µM, first compound 0.1 µM
[3] = second compound 0.1 µM, first compound 0.0316 µM
[4] = second compound 0.1 µM, first compound 0.1 µM
[5] = second compound 0.316 µM, first compound 0.0316 µM
[6] = second compound 0.316 µM, first compound 0.1 µM
[7] = second compound 1 µM, first compound 0.0316 µM
[8] = second compound 1 µM, first compound 0.1 µM
[9] = second compound 3.16 µM, first compound 0.0316 µM
[10] = second compound 3.16 µM, first compound 0.1 µM
[11] = second compound 10 µM, first compound 0.0316 µM
[12] = second compound 10 µM, first compound 0.1 µM
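Further: spheroids exposed to compounds for 7 days.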
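Wherever viability, T/C is given: 100% = DMSO vehicle-treated spheroids.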

## CC[C@@]1(O)C(=O)OCc2c1cc1n(c2=O)Cc2cc3c(CN(C)C)c(O)ccc3nc2-1 + Cc1cccc(N(C)C(=O)C2C(O)CCN2c2nc(C)cc(C(F)(F)F)c2C#N)c1
Second compound 0.0316 µM
  IC50: 6.93 nM
Second compound 0.1 µM
  IC50: 7.54 nM
Second compound 0.316 µM
  IC50: 8.14 nM
Second compound 1 µM
  IC50: 6.95 nM
Second compound 3.16 µM
  IC50: 7.21 nM
Second compound 10 µM
  IC50: 6.98 nM
Second compound 0.0316 µM, first compound 0.000316 µM
  viability, T/C: 109%
Second compound 0.0316 µM, first compound 0.001 µM
  viability, T/C: 121%
Second compound 0.0316 µM, first compound 0.00316 µM
  viability, T/C: 78.5%
Second compound 0.0316 µM, first compound 0.01 µM
  viability, T/C: 38%
[1]
  viability, T/C: 22.6%
[2]
  viability, T/C: 18.1%
Second compound 0.1 µM, first compound 0.000316 µM
  viability, T/C: 87.9%
Second compound 0.1 µM, first compound 0.001 µM
  viability, T/C: 118%
Second compound 0.1 µM, first compound 0.00316 µM
  viability, T/C: 72.8%
Second compound 0.1 µM, first compound 0.01 µM
  viability, T/C: 43.6%
[3]
  viability, T/C: 23.5%
[4]
  viability, T/C: 17.4%
Second compound 0.316 µM, first compound 0.000316 µM
  viability, T/C: 103%
Second compound 0.316 µM, first compound 0.001 µM
  viability, T/C: 96.8%
Second compound 0.316 µM, first compound 0.00316 µM
  viability, T/C: 61.6%
Second compound 0.316 µM, first compound 0.01 µM
  viability, T/C: 54.1%
[5]
  viability, T/C: 20%
[6]
  viability, T/C: 15.3%
Second compound 1 µM, first compound 0.000316 µM
  viability, T/C: 124%
Second compound 1 µM, first compound 0.001 µM
  viability, T/C: 84.9%
Second compound 1 µM, first compound 0.00316 µM
  viability, T/C: 76.2%
Second compound 1 µM, first compound 0.01 µM
  viability, T/C: 38.9%
[7]
  viability, T/C: 22%
[8]
  viability, T/C: 17.2%
Second compound 3.16 µM, first compound 0.000316 µM
  viability, T/C: 89.7%
Second compound 3.16 µM, first compound 0.001 µM
  viability, T/C: 123%
Second compound 3.16 µM, first compound 0.00316 µM
  viability, T/C: 83.2%
Second compound 3.16 µM, first compound 0.01 µM
  viability, T/C: 37.2%
[9]
  viability, T/C: 21.4%
[10]
  viability, T/C: 16.8%
Second compound 10 µM, first compound 0.000316 µM
  viability, T/C: 89.5%
Second compound 10 µM, first compound 0.001 µM
  viability, T/C: 113%
Second compound 10 µM, first compound 0.00316 µM
  viability, T/C: 82.7%
Second compound 10 µM, first compound 0.01 µM
  viability, T/C: 34.8%
[11]
  viability, T/C: 22.2%
[12]
  viability, T/C: 14.6%

## COc1cc(C2c3cc4c(cc3C(OC3OC5COC(C)OC5C(O)C3O)C3COC(=O)C23)OCO4)cc(OC)c1O (centres undefined) + Cc1cccc(N(C)C(=O)C2C(O)CCN2c2nc(C)cc(C(F)(F)F)c2C#N)c1
Second compound 0.0316 µM
  IC50: 55.1 nM
Second compound 0.1 µM
  IC50: 56.6 nM
Second compound 0.316 µM
  IC50: 72.1 nM
Second compound 1 µM
  IC50: 48.6 nM
Second compound 3.16 µM
  IC50: 47.5 nM
Second compound 10 µM
  IC50: 45 nM
[1]
  viability, T/C: 68.8%
[2]
  viability, T/C: 29.6%
Second compound 0.0316 µM, first compound 0.316 µM
  viability, T/C: 15.7%
Second compound 0.0316 µM, first compound 1 µM
  viability, T/C: 17.2%
Second compound 0.0316 µM, first compound 3.16 µM
  viability, T/C: 11.5%
Second compound 0.0316 µM, first compound 10 µM
  viability, T/C: 5.61%
[3]
  viability, T/C: 65.9%
[4]
  viability, T/C: 34.4%
Second compound 0.1 µM, first compound 0.316 µM
  viability, T/C: 11.6%
Second compound 0.1 µM, first compound 1 µM
  viability, T/C: 20.5%
Second compound 0.1 µM, first compound 3.16 µM
  viability, T/C: 13.7%
Second compound 0.1 µM, first compound 10 µM
  viability, T/C: 6.16%
[5]
  viability, T/C: 71.5%
[6]
  viability, T/C: 41.7%
Second compound 0.316 µM, first compound 0.316 µM
  viability, T/C: 15.8%
Second compound 0.316 µM, first compound 1 µM
  viability, T/C: 16.7%
Second compound 0.316 µM, first compound 3.16 µM
  viability, T/C: 12.2%
Second compound 0.316 µM, first compound 10 µM
  viability, T/C: 7.12%
[7]
  viability, T/C: 63.2%
[8]
  viability, T/C: 26.5%
Second compound 1 µM, first compound 0.316 µM
  viability, T/C: 18.9%
Second compound 1 µM, first compound 1 µM
  viability, T/C: 19.1%
Second compound 1 µM, first compound 3.16 µM
  viability, T/C: 14.4%
Second compound 1 µM, first compound 10 µM
  viability, T/C: 6.32%
[9]
  viability, T/C: 57.4%
[10]
  viability, T/C: 38.2%
Second compound 3.16 µM, first compound 0.316 µM
  viability, T/C: 18%
Second compound 3.16 µM, first compound 1 µM
  viability, T/C: 15.7%
Second compound 3.16 µM, first compound 3.16 µM
  viability, T/C: 12.5%
Second compound 3.16 µM, first compound 10 µM
  viability, T/C: 6.13%
[11]
  viability, T/C: 59.6%
[12]
  viability, T/C: 26.6%
Second compound 10 µM, first compound 0.316 µM
  viability, T/C: 22.6%
Second compound 10 µM, first compound 1 µM
  viability, T/C: 17.6%
Second compound 10 µM, first compound 3.16 µM
  viability, T/C: 11.6%
Second compound 10 µM, first compound 10 µM
  viability, T/C: 5.64%
